This data set has as its system Hartley guinea pigs. Nature of the data set: Termination effect on siponimod-induced bradyarrhythmia in isoflurane-anesthetized guinea pig model. The data set is classed as in vivo. The source says: Hartley guinea pigs (7 to 10 weeks old, male, available from Japan SLC, Inc.) were subjected to anesthetic induction by inhalation of isoflurane (available from Pfizer Japan Inc.), and each animal was held on an operating table having a heater function. The trachea was incised, and a tracheal cannula (KN-375, available from Natsume Seisakusho Co., Ltd.) was inserted. The tracheal cannula was connected to a ventilator (SN-480-7, available from Shinano Seisakusho Co., Ltd.), and artificial respiration was controlled by supplying 100% oxygen at a volume of 10 mL and a ventilation rate of 60 times/minute. Isoflurane (available from Pfizer Japan Inc.) anesthesia (about 1 to 4%, carrier gas: 100% oxygen) was used for maintenance of anesthesia. A catheter (BD intramedic polyethylene tubing PE50, available from Becton, Dickinson and Company) charged with 50 units/mL heparin (available from AY PHARMACEUTICALS CO., LTD.) was inserted into each of the carotid artery and the jugular vein and placed in the blood vessel. Systemic blood pressure was measured with a high-sensitivity DC amplifier (AD-611J, available from NIHON KOHDEN CORPORATION) via the catheter placed in the carotid artery. Electrodes were attached to the body surface, and a body surface electrocardiogram was measured with a high-sensitivity amplifier (AB-611J, available from NIHON KOHDEN CORPORATION). Blood pressure and electrocardiogram data were acquired and analyzed with PowerLab/Labchart system (available from ADInstruments). After stabilization of each parameter, siponimod (available from Nissan Chemical Corporation) was continuously administered intravenously at 0.01 mg/kg for 10 minutes via the catheter placed in the jugular vein, followed by observation of the presence or absence of atrioventricular block. The solvent used was a solution prepared by mixing of Polyethylene Glycol 400 (available from KANTO CHEMICAL CO., INC.) and dimethyl sulfoxide (available from FUJIFILM Wako Pure Chemical Corporation) at 9: 1 (volume ratio). […] Data were recorded and blood was collected 10, 20, and 30 minutes after initiation of administration of compound (I) dihydrochloride and at the time of termination of atrioventricular block. […] Data were analyzed for the presence or absence of the termination, the time required for the termination, and the plasma concentration of compound (I) at the time of termination. […] After thawing of the plasma, plasma drug concentrations were measured using LC/MS/MS after deproteinization with acetonitrile. […]

For `Cc1cc(CO)nc2cc3c(cc12)OC(C)(C)[C@H](O)[C@H]3NCCc1ccccc1` [Compound (I), (3R,4S)-7-Hydroxymethyl-2,2,9-trimethyl-4-(phenethylamino)-3,4-dihydro-2H-pyrano[2,3-g]quinoline-3-ol], the “siponimod-induced bradyarrhythmia (atrioventricular block) termination” value (compound (I) dihydrochloride 0.1 mg/kg continuous i.v.) is “completely terminated”. Also, where the note is “plasma, siponimod-induced block, 0.1 mg/kg continuous i.v. for 30 minutes, mean±standard error”, the “Compound (I) concentration at the time of termination” value came out at 22.7 ± 3.1 ng/mL. In addition, the “Number of cases where atrioventricular block was terminated” value (siponimod-induced block, compound (I) dihydrochloride 0.1 mg/kg continuous i.v. for 30 minutes) is 5/5. In addition, the “Time required for the termination of atrioventricular block” value (siponimod-induced block, compound (I) dihydrochloride 0.1 mg/kg continuous i.v. for 30 minutes, mean±standard error) came out at 638 ± 75 s.
